The NIST ThermoML archive (doi:10.1016/j.fluid.2015.04.022)
± gives the expanded uncertainty stated by the source.

Conditions: 298.2 K, 101.33 kPa, Liquid; for viscosity: Falling or rolling sphere viscometry; for mass density: Vibrating tube method

| Structure (SMILES) | viscosity | mass density |
| --- | --- | --- |
| C=CC(C)(O)CCC=C(C)C (centres undefined) [3,7-dimethyl-1,6-octadien-3-ol] | 4.57 ± 0.13 mPa·s | 857.38 ± 0.28 kg/m3 |
| C=C(C)[C@H]1CC=C(C)CC1 [(R)-1-methyl-4-(1-methylethenyl)cyclohexene] | 0.92 ± 0.12 mPa·s | 841.35 ± 0.36 kg/m3 |
